Experimental data from PMC12528448, “Resistance to CDK7 inhibitors directed by acquired mutation of a conserved residue in cancer cells” (The EMBO Journal, 2025).
Values joined by “and” are separate entries in the source; they are usually repeats but may differ in a detail not shown here. Identical values can stand only once.

Key:
[1] = test system: MCF7-CDK4^WT/D99N (CL4) cells; test: IncuCyte confluency growth, heterozygous CDK4 D99N clone CL4; assay type: cell-based, human
Method: (§1) To determine the IC50 of drug treatments on growth, cells were seeded in 96-well culture plates. Two days after seeding, the cells were treated with increasing concentrations of drugs and incubated for 4 days. Cell number was determined using the SRB assay (Skehan et al, [1990]), and IC50 values were calculated using non-linear regression curve fitting in GraphPad Prism v10. For all other growth experiments, cells were seeded into 96-well plates, and appropriate drugs were added 2 days after seeding. Cells were then incubated in an IncuCyte Zoom live-cell imager, with cell confluency measured every 6 h. Cell doubling times were determined by non-linear curve fitting (exponential growth equation) in GraphPad Prism v10.

[2] = test system: MCF7-CDK4^D99N (CL1) cells; test: IncuCyte confluency growth, homozygous CDK4 D99N clone CL1; assay type: cell-based, human
Method: as §1

[3] = heterozygous mutant clone, 1 µM Palbociclib
[4] = homozygous mutant clone, 1 µM Palbociclib

**Q.** For `CC(=O)c1c(C)c2cnc(Nc3ccc(N4CCNCC4)cn3)nc2n(C2CCCC2)c1=O` [Palbociclib], which “% Confluency” value ([1]; MCF7 CDK4 WT/D99N CL4, 100nM Palbociclib, 60 Hours) is on record?
**A.** The value was 21.25% and 30.29% and 23.70%.

**Q.** And the “% Confluency” value ([1]; MCF7 CDK4 WT/D99N CL4, 100nM Palbociclib, 72 Hours)?
**A.** The value was 26.21% and 37.68% and 29.57%.

**Q.** What about the “% Confluency” value ([1]; MCF7 CDK4 WT/D99N CL4, 100nM Palbociclib, 84 Hours) of the same molecule?
**A.** Its value is 33.66% and 47.41% and 37.94%.

**Q.** And the “% Confluency” value ([1]; MCF7 CDK4 WT/D99N CL4, 100nM Palbociclib, 96 Hours)?
**A.** The value was 41.77% and 57.37% and 52.38%.

**Q.** What about the “% Confluency” value ([1]; MCF7 CDK4 WT/D99N CL4, 500nM Palbociclib, 0 Hours) of the same molecule?
**A.** The value was 4.80% and 7.59% and 7.67%.

**Q.** What about the “% Confluency” value ([1]; MCF7 CDK4 WT/D99N CL4, 500nM Palbociclib, 12 Hours) of the same molecule?
**A.** The value was 7.05% and 11.14% and 11.17%.

**Q.** And the “% Confluency” value ([1]; MCF7 CDK4 WT/D99N CL4, 500nM Palbociclib, 24 Hours)?
**A.** The value was 9.22% and 14.33% and 14.28%.

**Q.** And the “% Confluency” value ([1]; MCF7 CDK4 WT/D99N CL4, 500nM Palbociclib, 36 Hours)?
**A.** The value was 10.74% and 17.40% and 16.58%.

**Q.** And the “% Confluency” value ([1]; MCF7 CDK4 WT/D99N CL4, 500nM Palbociclib, 48 Hours)?
**A.** The value was 12.63% and 21.45% and 19.54%.

**Q.** What about the “% Confluency” value ([1]; MCF7 CDK4 WT/D99N CL4, 500nM Palbociclib, 60 Hours) of the same molecule?
**A.** Its value is 15.04% and 27.04% and 23.43%.

**Q.** What about the “% Confluency” value ([1]; MCF7 CDK4 WT/D99N CL4, 500nM Palbociclib, 72 Hours) of the same molecule?
**A.** Its value is 17.72% and 33.02% and 27.35%.

**Q.** And the “% Confluency” value ([1]; MCF7 CDK4 WT/D99N CL4, 500nM Palbociclib, 84 Hours)?
**A.** Its value is 21.21% and 40.89% and 33.24%.

**Q.** And the “% Confluency” value ([1]; MCF7 CDK4 WT/D99N CL4, 500nM Palbociclib, 96 Hours)?
**A.** Its value is 25.51% and 49.34% and 42.77%.

**Q.** What about the “% Confluency” value ([1]; MCF7 CDK4 WT/D99N CL4, 500nM Palbociclib, […] Hours) of the same molecule?
**A.** The value was 36.56%.

**Q.** What about the “% Confluency” value ([1]; MCF7 CDK4 WT/D99N CL4, 1000nM Palbociclib, 0 Hours) of the same molecule?
**A.** The value was 4.12% and 6.61% and 6.57%.

**Q.** And the “% Confluency” value ([1]; MCF7 CDK4 WT/D99N CL4, 1000nM Palbociclib, 12 Hours)?
**A.** The value was 6.05% and 10.03% and 9.86%.

**Q.** What about the “% Confluency” value ([1]; MCF7 CDK4 WT/D99N CL4, 1000nM Palbociclib, 24 Hours) of the same molecule?
**A.** Its value is 7.59% and 12.47% and 13.02%.

**Q.** What about the “% Confluency” value ([1]; MCF7 CDK4 WT/D99N CL4, 1000nM Palbociclib, 36 Hours) of the same molecule?
**A.** The value was 9.19% and 15.30% and 14.61%.

**Q.** And the “% Confluency” value ([1]; MCF7 CDK4 WT/D99N CL4, 1000nM Palbociclib, 48 Hours)?
**A.** Its value is 10.50% and 18.34% and 17.08%.

**Q.** And the “% Confluency” value ([1]; MCF7 CDK4 WT/D99N CL4, 1000nM Palbociclib, 60 Hours)?
**A.** Its value is 12.27% and 23.14% and 19.62%.

**Q.** What about the “Sensitivity of growth” value ([1]; heterozygous mutant clone vs MCF7) of the same molecule?
**A.** Its value is “substantially less sensitive”.

**Q.** What about the Doubling time [1, 3] of the same molecule?
**A.** The Doubling time was 55.3 (95% CI = 43.9–71.7) h.

**Q.** And the “Increase of doubling time vs vehicle” value [1, 3]?
**A.** Its value is “twofold”.

**Q.** And the “% Confluency” value ([2]; MCF7 CDK4 D99N/D99N CL1, 50nM Palbociclib, 0 Hours)?
**A.** The value was 4.47% and 7.41% and 8.54%.

**Q.** And the “% Confluency” value ([2]; MCF7 CDK4 D99N/D99N CL1, 50nM Palbociclib, 12 Hours)?
**A.** Its value is 6.57% and 10.81% and 12.65%.

**Q.** What about the “% Confluency” value ([2]; MCF7 CDK4 D99N/D99N CL1, 50nM Palbociclib, 24 Hours) of the same molecule?
**A.** The value was 7.94% and 14.04% and 16.28%.

**Q.** And the “% Confluency” value ([2]; MCF7 CDK4 D99N/D99N CL1, 50nM Palbociclib, 36 Hours)?
**A.** The value was 9.96% and 16.26% and 19.65%.

**Q.** And the “% Confluency” value ([2]; MCF7 CDK4 D99N/D99N CL1, 50nM Palbociclib, 60 Hours)?
**A.** The value was 16.05% and 25.67% and 31.53%.

**Q.** And the “% Confluency” value ([2]; MCF7 CDK4 D99N/D99N CL1, 50nM Palbociclib, 72 Hours)?
**A.** Its value is 20.59% and 33.83% and 40.66%.

**Q.** And the “% Confluency” value ([2]; MCF7 CDK4 D99N/D99N CL1, 100nM Palbociclib, 0 Hours)?
**A.** The value was 5.11% and 7.96% and 8.92%.

**Q.** And the “% Confluency” value ([2]; MCF7 CDK4 D99N/D99N CL1, 100nM Palbociclib, 12 Hours)?
**A.** Its value is 7.75% and 11.79% and 13.54%.

**Q.** And the “% Confluency” value ([2]; MCF7 CDK4 D99N/D99N CL1, 100nM Palbociclib, 24 Hours)?
**A.** The value was 9.54% and 15.28% and 17.18%.

**Q.** What about the “% Confluency” value ([2]; MCF7 CDK4 D99N/D99N CL1, 100nM Palbociclib, 36 Hours) of the same molecule?
**A.** Its value is 11.96% and 17.72% and 19.72%.

**Q.** What about the “% Confluency” value ([2]; MCF7 CDK4 D99N/D99N CL1, 100nM Palbociclib, 48 Hours) of the same molecule?
**A.** Its value is 15.88% and 21.63% and 24.14%.

**Q.** What about the “% Confluency” value ([2]; MCF7 CDK4 D99N/D99N CL1, 100nM Palbociclib, 60 Hours) of the same molecule?
**A.** Its value is 19.72% and 27.06% and 29.56%.

**Q.** And the “% Confluency” value ([2]; MCF7 CDK4 D99N/D99N CL1, 100nM Palbociclib, 72 Hours)?
**A.** The value was 25.72% and 33.76% and 37.42%.

**Q.** And the “% Confluency” value ([2]; MCF7 CDK4 D99N/D99N CL1, 100nM Palbociclib, 84 Hours)?
**A.** Its value is 33.55% and 43.80% and 49.43%.

**Q.** What about the “% Confluency” value ([2]; MCF7 CDK4 D99N/D99N CL1, 100nM Palbociclib, 96 Hours) of the same molecule?
**A.** Its value is 44.26% and 56.08% and 62.73%.

**Q.** What about the “% Confluency” value ([2]; MCF7 CDK4 D99N/D99N CL1, 500nM Palbociclib, 0 Hours) of the same molecule?
**A.** Its value is 4.28% and 7.96% and 8.62%.

**Q.** And the “% Confluency” value ([2]; MCF7 CDK4 D99N/D99N CL1, 500nM Palbociclib, 12 Hours)?
**A.** Its value is 6.49% and 11.80% and 13.50%.

**Q.** What about the “% Confluency” value ([2]; MCF7 CDK4 D99N/D99N CL1, 500nM Palbociclib, 24 Hours) of the same molecule?
**A.** The value was 8.63% and 14.98% and 17.24%.

**Q.** What about the “% Confluency” value ([2]; MCF7 CDK4 D99N/D99N CL1, 500nM Palbociclib, 36 Hours) of the same molecule?
**A.** Its value is 10.70% and 16.67% and 18.25%.

**Q.** What about the “% Confluency” value ([2]; MCF7 CDK4 D99N/D99N CL1, 500nM Palbociclib, 48 Hours) of the same molecule?
**A.** The value was 13.35% and 19.15% and 19.83%.

**Q.** And the “% Confluency” value ([2]; MCF7 CDK4 D99N/D99N CL1, 500nM Palbociclib, 60 Hours)?
**A.** Its value is 17.13% and 22.40% and 23.57%.

**Q.** What about the “% Confluency” value ([2]; MCF7 CDK4 D99N/D99N CL1, 500nM Palbociclib, 72 Hours) of the same molecule?
**A.** The value was 21.34% and 27.28% and 27.86%.

**Q.** And the “% Confluency” value ([2]; MCF7 CDK4 D99N/D99N CL1, 500nM Palbociclib, 84 Hours)?
**A.** Its value is 27.05% and 33.32% and 34.40%.

**Q.** And the “% Confluency” value ([2]; MCF7 CDK4 D99N/D99N CL1, 500nM Palbociclib, 96 Hours)?
**A.** The value was 34.72% and 41.63% and 42.47%.

**Q.** What about the “% Confluency” value ([2]; MCF7 CDK4 D99N/D99N CL1, 500nM Palbociclib, […] Hours) of the same molecule?
**A.** The value was 39.86%.

**Q.** And the “% Confluency” value ([2]; MCF7 CDK4 D99N/D99N CL1, 1000nM Palbociclib, 0 Hours)?
**A.** Its value is 4.23% and 6.28% and 8.65%.

**Q.** What about the “% Confluency” value ([2]; MCF7 CDK4 D99N/D99N CL1, 1000nM Palbociclib, 12 Hours) of the same molecule?
**A.** Its value is 6.49% and 9.38% and 13.38%.

**Q.** And the “% Confluency” value ([2]; MCF7 CDK4 D99N/D99N CL1, 1000nM Palbociclib, 24 Hours)?
**A.** Its value is 8.61% and 12.05% and 16.81%.

**Q.** And the “% Confluency” value ([2]; MCF7 CDK4 D99N/D99N CL1, 1000nM Palbociclib, 36 Hours)?
**A.** The value was 10.75% and 13.98% and 18.02%.

**Q.** What about the “% Confluency” value ([2]; MCF7 CDK4 D99N/D99N CL1, 1000nM Palbociclib, 48 Hours) of the same molecule?
**A.** Its value is 13.71% and 15.18% and 19.26%.

**Q.** What about the “% Confluency” value ([2]; MCF7 CDK4 D99N/D99N CL1, 1000nM Palbociclib, 60 Hours) of the same molecule?
**A.** Its value is 17.11% and 17.23% and 21.83%.

**Q.** What about the “% Confluency” value ([2]; MCF7 CDK4 D99N/D99N CL1, 1000nM Palbociclib, 72 Hours) of the same molecule?
**A.** The value was 21.46% and 20.52% and 24.80%.

**Q.** And the “% Confluency” value ([2]; MCF7 CDK4 D99N/D99N CL1, 1000nM Palbociclib, 84 Hours)?
**A.** Its value is 26.42% and 23.91% and 29.84%.

**Q.** And the “% Confluency” value ([2]; MCF7 CDK4 D99N/D99N CL1, 1000nM Palbociclib, 96 Hours)?
**A.** The value was 33.28% and 29.04% and 35.27%.

**Q.** What about the “Sensitivity of growth” value ([2]; homozygous mutant clone vs MCF7) of the same molecule?
**A.** Its value is “substantially less sensitive”.

**Q.** What about the Doubling time [2, 4] of the same molecule?
**A.** Its Doubling time is 54.6 (95% CI = 48.4–62.1) h.

**Q.** What about the “Increase of doubling time vs vehicle” value [2, 4] of the same molecule?
**A.** Its value is “twofold”.
